# In PubChem BioAssay AID2060499 (Molecular Pharmacology Branch, DTP, NCI, 2025):
# System: 777334-354-R2-J4-PDC tumor spheroids with HUVEC/MSC, viability
# Experiment: Anticancer human tumor 777334-354-R2-J4-PDC patient-derived pancreatic adenocarcinoma cell line growth inhibition [GQUAD]
# Conditions: for IC50: curve of first compound; for viability, T/C: stronger effect = lower value
# Excerpt: DNA G-quadruplex Stabilizer Agents in Combinations in Complex Spheroids
# A high-throughput screen of multi-cell type tumor spheroids was designed to identify active combinations of DNA G-quadruplex stabilizer agents and targeted small molecules. Complex spheroids include a stromal component modeled by human endothelial cells (HUVEC) and fibroblasts modeled by human mesenchymal stem cells (MSCs). The concentration ranges selected for each drug and investigational agent were based upon clinically achievable concentrations if the clinical Cmax of the agent was known.
# Compounds. The drugs and investigational agents: pidnarulex (CX-5461; NSC782164), APTO-253 (NSC789042), BRACO-19 (NSC847499), peposertib (NSC802822), ceralasertib (NSC780249), elimusertib (NSC800525), camonsertib (NSC841442), AZD-1390 (NSC803789), olaparib (NSC753686), talazoparib (NSC767125), ART-558 (NSC835418), sotorasib (NSC818433), MRTX-1133 (NSC836407), SN-38 (NSC673596), topotecan (NSC609699), etoposide (NSC141540), doxorubicin (NSC123127), gemcitabine (NSC613327), 5-fluorouracil (NSC19893), paclitaxel (NSC125973), vemurafenib (NSC761431), panobinostat (NSC761190), R-306465 (JNJ-16241199; NSC773264), adavosertib (NSC754352), TP-3654 (NSC805149), carboplatin (NSC241240), KSQ-4279 (NSC840948), and staurosporine (NSC755774) were obtained from the National Cancer Institute (NCI) Developmental Therapeutics Program Chemical Repository (34). The FDA-approved anticancer drug set is available from the NCI Developmental Therapeutics Program. […] The stock solutions were prepared in dimethyl sulfoxide (DMSO, Sigma-Aldrich, St. Louis, MO, cat. D2650) at 800-fold the tested concentration and stored at -70 degrees C prior to their use. All drugs and investigational agents were tested over a range starting from a high concentration at or near the clinical Cmax and decreasing in half-log increments. If the clinical Cmax for an agent had not been determined, the highest concentration tested was 10 microM.
# 2.3 Cell Culture. All cells were maintained in an incubator at 37 degrees C and 5% CO2 with 95% humidity. The PDC lines were cultured according to standard operating procedures established by the NCI PDMR. All PDCs were thawed and cultured in Matrigel-coated flasks prepared with a working solution of 1X Ham's F-12 nutrient mix, without supplementation (Invitrogen, cat. 11765054), 100 U/mL penicillin-streptomycin (Invitrogen, cat. 15140122), and 2.5% Matrigel (Corning Inc., cat. 354248) for the first three passages. The 857933-349-R-J2-PDC line was cultured in 6C/Colon 1B media, which includes advanced DMEM/F-12 (Thermo Fisher Scientific, cat. 12634028), 10 mM HEPES (Thermo Fisher Scientific, cat. 15630080), 1X GlutaMAX supplement (Thermo Fisher Scientific, cat. 35050061), 0.1 mg/mL primocin (InvivoGen, cat. ant-pm-2), 10% defined fetal bovine serum, heat inactivated (HyClone Laboratories Inc., cat. SH30070.03HI), 50% L-WRN conditioned media (ATCC, cat. CRL-3276), 1.25 mM N-Acetyl-L-cysteine (Sigma-Aldrich, cat. A9165), 10 mM nicotinamide (Sigma-Aldrich, cat. N0636), 1X B-27 supplement (Thermo Fisher Scientific, cat. 17504044), 1X N-2 supplement (Thermo Fisher Scientific, cat. 17502048), 10 microM Y-27632 dihydrochloride (Tocris Bioscience, cat. 1254), and 50 ng/mL human EGF recombinant protein (Thermo Fisher Scientific, cat. PHG0311). The 485176-168-R4-J1-PDC line was cultured in Panc media, which includes all 6C/Colon 1B media components plus 100 ng/mL human FGF-10 (Thermo Fisher Scientific, cat. 100-26), 500 nM SB-431542 (Selleckchem, cat. S1067), and gastrin (Tocris, cat. 3006).
# […]
# [1] = second compound 0.0316 µM, first compound 0.0316 µM
# [2] = second compound 0.0316 µM, first compound 0.1 µM
# [3] = second compound 0.0316 µM, first compound 0.316 µM
# [4] = second compound 0.0316 µM, first compound 1 µM
# [5] = second compound 0.0316 µM, first compound 3.16 µM
# [6] = second compound 0.0316 µM, first compound 10 µM
# [7] = second compound 0.1 µM, first compound 0.0316 µM
# [8] = second compound 0.1 µM, first compound 0.1 µM
# [9] = second compound 0.1 µM, first compound 0.316 µM
# [10] = second compound 0.1 µM, first compound 1 µM
# [11] = second compound 0.1 µM, first compound 3.16 µM
# [12] = second compound 0.1 µM, first compound 10 µM
# [13] = second compound 0.316 µM, first compound 0.0316 µM
# [14] = second compound 0.316 µM, first compound 0.1 µM
# [15] = second compound 0.316 µM, first compound 0.316 µM
# [16] = second compound 0.316 µM, first compound 1 µM
# [17] = second compound 0.316 µM, first compound 3.16 µM
# [18] = second compound 0.316 µM, first compound 10 µM
# [19] = second compound 1 µM, first compound 0.0316 µM
# [20] = second compound 1 µM, first compound 0.1 µM
# [21] = second compound 1 µM, first compound 0.316 µM
# [22] = second compound 1 µM, first compound 1 µM
# [23] = second compound 1 µM, first compound 3.16 µM
# [24] = second compound 1 µM, first compound 10 µM
# [25] = second compound 3.16 µM, first compound 0.0316 µM
# [26] = second compound 3.16 µM, first compound 0.1 µM
# [27] = second compound 3.16 µM, first compound 0.316 µM
# [28] = second compound 3.16 µM, first compound 1 µM
# [29] = second compound 3.16 µM, first compound 3.16 µM
# [30] = second compound 3.16 µM, first compound 10 µM
# [31] = second compound 10 µM, first compound 0.0316 µM
# [32] = second compound 10 µM, first compound 0.1 µM
# [33] = second compound 10 µM, first compound 0.316 µM
# [34] = second compound 10 µM, first compound 1 µM
# [35] = second compound 10 µM, first compound 3.16 µM
# [36] = second compound 10 µM, first compound 10 µM
# 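Further: spheroids exposed to compounds for 7 days before readout.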
smiles,measurement,setting,value
C=CC(=O)N1CCN(c2nc(=O)n(-c3c(C)ccnc3C(C)C)c3nc(-c4c(O)cccc4F)c(F)cc23)C(C)C1 (centres undefined) + CN(C)c1ccc(Nc2c3ccc(NC(=O)CCN4CCCC4)cc3nc3cc(NC(=O)CCN4CCCC4)ccc23)cc1,IC50,second compound 0.0316 µM,> 10 µM
same,IC50,second compound 0.1 µM,> 10 µM
same,IC50,second compound 0.316 µM,> 10 µM
same,IC50,second compound 1 µM,> 10 µM
same,IC50,second compound 3.16 µM,> 10 µM
same,IC50,second compound 10 µM,> 10 µM
same,"viability, T/C",[1],102%
same,"viability, T/C",[2],97%
same,"viability, T/C",[3],115%
same,"viability, T/C",[4],100%
same,"viability, T/C",[5],116%
same,"viability, T/C",[6],118%
same,"viability, T/C",[7],89.5%
same,"viability, T/C",[8],95.1%
same,"viability, T/C",[9],104%
same,"viability, T/C",[10],128%
same,"viability, T/C",[11],120%
same,"viability, T/C",[12],107%
same,"viability, T/C",[13],98.2%
same,"viability, T/C",[14],109%
same,"viability, T/C",[15],103%
same,"viability, T/C",[16],113%
same,"viability, T/C",[17],106%
same,"viability, T/C",[18],109%
same,"viability, T/C",[19],92.8%
same,"viability, T/C",[20],86.7%
same,"viability, T/C",[21],94.2%
same,"viability, T/C",[22],105%
same,"viability, T/C",[23],115%
same,"viability, T/C",[24],97.7%
same,"viability, T/C",[25],84.6%
same,"viability, T/C",[26],87.2%
same,"viability, T/C",[27],90.5%
same,"viability, T/C",[28],107%
same,"viability, T/C",[29],112%
same,"viability, T/C",[30],95%
same,"viability, T/C",[31],76.7%
same,"viability, T/C",[32],76.3%
same,"viability, T/C",[33],84%
same,"viability, T/C",[34],90.5%
same,"viability, T/C",[35],99.5%
same,"viability, T/C",[36],75.5%
Cc1cccc(N(C)C(=O)C2C(O)CCN2c2nc(C)cc(C(F)(F)F)c2C#N)c1 (centres undefined) + CN(C)c1ccc(Nc2c3ccc(NC(=O)CCN4CCCC4)cc3nc3cc(NC(=O)CCN4CCCC4)ccc23)cc1,IC50,second compound 0.0316 µM,> 10 µM
same,IC50,second compound 0.1 µM,> 10 µM
same,IC50,second compound 0.316 µM,> 10 µM
same,IC50,second compound 1 µM,> 10 µM
same,IC50,second compound 3.16 µM,> 10 µM
same,IC50,second compound 10 µM,10 µM
same,"viability, T/C",[1],89.3%
same,"viability, T/C",[2],87.3%
same,"viability, T/C",[3],101%
same,"viability, T/C",[4],87.2%
same,"viability, T/C",[5],93.2%
same,"viability, T/C",[6],89.7%
same,"viability, T/C",[7],87.1%
same,"viability, T/C",[8],93.3%
same,"viability, T/C",[9],85.1%
same,"viability, T/C",[10],93.1%
same,"viability, T/C",[11],95.2%
same,"viability, T/C",[12],90.9%
same,"viability, T/C",[13],95.3%
same,"viability, T/C",[14],79.1%
same,"viability, T/C",[15],94.8%
same,"viability, T/C",[16],89.1%
same,"viability, T/C",[17],106%
same,"viability, T/C",[18],88.5%
same,"viability, T/C",[19],90.7%
same,"viability, T/C",[20],82.5%
same,"viability, T/C",[21],76.6%
same,"viability, T/C",[22],84.1%
same,"viability, T/C",[23],96.7%
same,"viability, T/C",[24],81.8%
same,"viability, T/C",[25],77%
same,"viability, T/C",[26],71.2%
same,"viability, T/C",[27],85.1%
same,"viability, T/C",[28],75.3%
same,"viability, T/C",[29],80.1%
same,"viability, T/C",[30],80.6%
same,"viability, T/C",[31],73.7%
same,"viability, T/C",[32],79%
same,"viability, T/C",[33],69.9%
same,"viability, T/C",[34],71.7%
same,"viability, T/C",[35],62.8%
same,"viability, T/C",[36],50%
